Starred links: 1 amine or outer side, 2 acyl side, 3 side chain; linkers in the order of their positions; H or OH if unused. Positions of bridges follow the written chain, without caps; N, C: chain ends. Non-standard residues stand in square brackets, D forms with d. Residues, ends and D or L forms follow the SMILES beside them. *: point of attachment. Bip(4'-NHCO-C6H4-3-CH2COOH) = N[C@@H](Cc1ccc(-c2ccc(NC(=O)c3cccc(CC(=O)O)c3)cc2)cc1)C(=O)O; X5 = Cn1nc(C(=O)Nc2ccc(-c3ccc(C[C@H](N[*:1])C(=O)[*:2])cc3)cc2)c2ccccc21; X21 = N=C(NCCC[C@@H](N[*:1])C(=O)[*:2])NC[C@H](O)[C@@H](O)[C@@H](O)CO; Bip(4'-NH) = O=C([C@H](Cc1ccc(-c2ccc(N[*:3])cc2)cc1)N[*:1])[*:2]; X71 = O=C(O)Cn1cc(C[C@H](NC(=O)c2cccc(C(=O)O)c2)C(=O)*)c2ccccc21; Indazole3carbonyl(1-CH2COOH) = O=C(O)Cn1nc(C(=O)*)c2ccccc21; Bip(4'-COOH) = N[C@@H](Cc1ccc(-c2ccc(C(=O)O)cc2)cc1)C(=O)O; Bip(4'-NHAc) = CC(=O)Nc1ccc(-c2ccc(C[C@H](N)C(=O)O)cc2)cc1; X25 = N=C(N)Nc1cccc(CNC(=N)NCCC[C@@H](N[*:1])C(=O)[*:2])c1; Indole3carbonyl(1-CH2COOH) = O=C(O)Cn1cc(C(=O)*)c2ccccc21; Ala(imidazol-2-yl) = N[C@@H](Cc1ncc[nH]1)C(=O)O; dArg(ω-Bn) = N=C(NCCC[C@@H](N)C(=O)O)NCc1ccccc1; Ala(morpholin-4-yl) = N[C@@H](CN1CCOCC1)C(=O)O; Phe(3-CONH2) = NC(=O)c1cccc(C[C@H](N)C(=O)O)c1; Bip = N[C@@H](Cc1ccc(-c2ccccc2)cc1)C(=O)O; Ala(2-furyl) = N[C@@H](Cc1ccco1)C(=O)O; Val(3-OH) = CC(C)(O)[C@H](N)C(=O)O; 2Pal = N[C@@H](Cc1ccccn1)C(=O)O; 3Pal = N[C@@H](Cc1cccnc1)C(=O)O; Cha = N[C@@H](CC1CCCCC1)C(=O)O; d(αMeP) = C[C@]1(C(=O)O)CCCN1; Tle = CC(C)(C)[C@H](N)C(=O)O; Aze = O=C(O)[C@@H]1CCN1; Sar = CNCC(=O)O
These compounds were tested against TNFα (Homo sapiens, UniProt P01375) (assay: TNF-Induced HEK-Blue Assay). Conditions: not given.
Sequence of TNFα (P01375 77-233 limits assumed): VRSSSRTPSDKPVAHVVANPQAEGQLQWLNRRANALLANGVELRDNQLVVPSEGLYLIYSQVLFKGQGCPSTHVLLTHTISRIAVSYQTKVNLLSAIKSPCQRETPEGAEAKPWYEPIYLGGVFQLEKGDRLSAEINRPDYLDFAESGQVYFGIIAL
Type: cell-based

Row | SMILES | IC50
1 | CC(C)C[C@@H]1NC(=O)[C@H](CCCNC(=N)N)NC(=O)[C@H](C(C)C)NC(=O)[C@@H]2CCCN2C(=O)[C@H](C(C)C)NC(=O)[C@@H](CCCNC(=N)N)NC(=O)[C@H](CC(=O)O)NC(=O)[C@@H]2CCCN2C(=O)CN(C)C(=O)[C@H](Cc2ccc(-c3ccc(NC(=O)c4nn(CC(=O)O)c5ccccc45)cc3)cc2)NC(=O)[C@H](Cc2ccc(-c3ccccc3)cc2)NC(=O)[C@H](CN2CCOCC2)NC(=O)CSC[C@@H](C(=O)NCC(N)=O)NC1=O [Example 333] ({CH2CO}-[Ala(morpholin-4-yl)][Bip][Bip(4'-NH)](Indazole3carbonyl(1-CH2COOH))[Sar]PD[dR]VPVRLCG-NH2; thioether N-13) | < 50 nM
2 | CC[C@H](C)[C@@H]1NC(=O)[C@@H](CCCNC(=N)NCc2ccccc2)NC(=O)[C@H](CC(=O)O)NC(=O)[C@@H]2CCCN2C(=O)CN(C)C(=O)[C@H](Cc2ccc(-c3ccc(NC(=O)c4cn(CC(=O)O)c5ccccc45)cc3)cc2)NC(=O)[C@H](Cc2ccc(-c3ccccc3)cc2)NC(=O)[C@H](CN2CCOCC2)NC(=O)CSC[C@@H](C(=O)NCC(N)=O)NC(=O)[C@H](CC(C)C)NC(=O)[C@H](Cc2cnc[nH]2)NC(=O)[C@H](C(C)C)NC(=O)[C@@H]2CCCN2C1=O [Example 533] ({CH2CO}-[Ala(morpholin-4-yl)][Bip][Bip(4'-NH)](Indole3carbonyl(1-CH2COOH))[Sar]PD[dArg(ω-Bn)]IPVHLCG-NH2; thioether N-13) | < 50 nM

Same assay, conditions: HEK-Blue-CD40L cells, NF-kB-driven secreted alkaline phosphatase reporter; TNFα 0.5 ng/ml; 18 h; read-out: TNF induced HEK-Blue assay IC50 value

Row | IC50 | SMILES
3 | 50 to 200 nM | CC(=O)Nc1ccc(-c2ccc(C[C@@H]3NC(=O)[C@H](Cc4ccc(-c5ccccc5)cc4)NC(=O)[C@H](C(C)(C)O)NC(=O)CSC[C@@H](C(=O)NCC(N)=O)NC(=O)[C@H](CC(C)C)NC(=O)[C@H](Cc4ccc(O)cc4)NC(=O)[C@H](C(C)C)NC(=O)[C@@H]4CCCN4C(=O)[C@H](C(C)C)NC(=O)[C@H](CCCNC(=N)N)NC(=O)[C@H](CC(=O)O)NC(=O)[C@@H]4CCCN4C(=O)CN(C)C3=O)cc2)cc1 [Example 194] ({CH2CO}-[Val(3-OH)][Bip][Bip(4'-NHAc)][Sar]PDRVPVYLCG-NH2; thioether N-13)
4 | 200 to 2000 nM | CC(C)C[C@@H]1NC(=O)[C@H](Cc2ccc(O)cc2)NC(=O)[C@H](C(C)C)NC(=O)[C@@H]2CCCN2C(=O)[C@H](C(C)C)NC(=O)[C@@H](CCCNC(=N)N)NC(=O)[C@H](CC(=O)O)NC(=O)[C@@]2(C)CCCN2C(=O)CN(C)C(=O)[C@H](Cc2ccc(-c3ccccc3)cc2)NC(=O)[C@H](Cc2ccc(-c3ccccc3)cc2)NC(=O)[C@H](CN2CCOCC2)NC(=O)CSC[C@@H](C(=O)NCC(N)=O)NC1=O [Example 102] ({CH2CO}-[Ala(morpholin-4-yl)][Bip][Bip][Sar][d(αMeP)]D[dR]VPVYLCG-NH2; thioether N-13)
5 | < 50 nM | CC[C@H](C)[C@@H]1NC(=O)[C@@H](CCCNC(=N)N)NC(=O)[C@H](CC(=O)O)NC(=O)[C@@H]2CCCN2C(=O)CN(C)C(=O)[C@H](Cc2ccc(-c3ccc(NC(=O)c4cccc(CC(=O)O)c4)cc3)cc2)NC(=O)[C@H](Cc2ccc(-c3ccc(C(=O)O)cc3)cc2)NC(=O)[C@H](CN2CCOCC2)NC(=O)CSC[C@@H](C(=O)NCC(N)=O)NC(=O)[C@H](CC(C)C)NC(=O)[C@H](Cc2cnc[nH]2)NC(=O)[C@H](C(C)C)NC(=O)[C@@H]2CCCN2C1=O [Example 578] ({CH2CO}-[Ala(morpholin-4-yl)][Bip(4'-COOH)][Bip(4'-NHCO-C6H4-3-CH2COOH)][Sar]PD[dR]IPVHLCG-NH2; thioether N-13)
6 | 50 to 200 nM | CC(C)C[C@@H]1NC(=O)[C@H](CCCNC(=N)N)NC(=O)[C@H](C(C)C)NC(=O)[C@@H]2CCCN2C(=O)[C@H](C(C)C)NC(=O)[C@@H](CCCNC(=N)N)NC(=O)[C@H](CC(=O)O)NC(=O)[C@H](Cc2ccc(O)cc2)NC(=O)CNC(=O)[C@H](Cc2ccc(-c3ccccc3)cc2)NC(=O)[C@H](Cc2ccc(-c3ccccc3)cc2)NC(=O)[C@H](CN2CCOCC2)NC(=O)CSC[C@@H](C(=O)NCC(N)=O)NC1=O [Example 132] ({CH2CO}-[Ala(morpholin-4-yl)][Bip][Bip]GYD[dR]VPVRLCG-NH2; thioether N-13)
7 | 200 to 2000 nM | CC(C)C[C@@H]1NC(=O)[C@H](CCCNC(=N)N)NC(=O)[C@H](C(C)C)NC(=O)[C@@H]2CCCN2C(=O)[C@H](C(C)C)NC(=O)[C@H](CCCNC(=N)N)NC(=O)[C@H](CC(=O)O)NC(=O)[C@@H]2CCN2C(=O)CN(C)C(=O)[C@H](Cc2ccc(-c3ccccc3)cc2)NC(=O)[C@H](Cc2ccc(-c3ccccc3)cc2)NC(=O)[C@H](Cc2ccccc2)NC(=O)CSC[C@@H](C(=O)NCC(N)=O)NC1=O [Example 46] ({CH2CO}-F[Bip][Bip][Sar][Aze]DRVPVRLCG-NH2; thioether N-13)
8 | 50 to 200 nM | CC(C)C[C@@H]1NC(=O)[C@H](Cc2ccc(O)cc2)NC(=O)[C@H](C(C)C)NC(=O)[C@H](Cc2cccnc2)NC(=O)[C@H](C(C)C)NC(=O)[C@H](CCCNC(=N)N)NC(=O)[C@H](CC(=O)O)NC(=O)[C@H](Cc2ccc(O)cc2)NC(=O)CN(C)C(=O)[C@H](Cc2ccc(-c3ccccc3)cc2)NC(=O)[C@H](Cc2ccc(-c3ccccc3)cc2)NC(=O)[C@H](C(C)(C)O)NC(=O)CSC[C@@H](C(=O)NCC(N)=O)NC1=O [Example 106] ({CH2CO}-[Val(3-OH)][Bip][Bip][Sar]YDRV[3Pal]VYLCG-NH2; thioether N-13)
9 | 50 to 200 nM | CC(C)C[C@@H]1NC(=O)[C@H](CCCNC(=N)N)NC(=O)[C@H](C(C)C)NC(=O)[C@@H]2CCCN2C(=O)[C@H](C(C)C)NC(=O)[C@@H](CCCNC(=N)NC[C@H](O)[C@@H](O)[C@@H](O)CO)NC(=O)[C@H](CC(=O)O)NC(=O)[C@@H]2CCCN2C(=O)CN(C)C(=O)[C@H](Cc2ccc(-c3ccc(NC(=O)c4cccc(CC(=O)O)c4)cc3)cc2)NC(=O)[C@H](Cc2ccc(-c3ccccc3)cc2)NC(=O)[C@H](CN2CCOCC2)NC(=O)CSC[C@@H](C(=O)NCC(N)=O)NC1=O [Example 627] ({CH2CO}-[Ala(morpholin-4-yl)][Bip][Bip(4'-NHCO-C6H4-3-CH2COOH)][Sar]PD[X21]VPVRLCG-NH2; thioether N-13)

The remaining lines, values behind:

Row | SMILES | IC50
10 | CC(=O)Nc1ccc(-c2ccc(C[C@@H]3NC(=O)[C@H](Cc4ccc(-c5ccc(C(=O)O)cc5)cc4)NC(=O)[C@H](CC4CCCCC4)NC(=O)CSC[C@@H](C(=O)NCC(N)=O)NC(=O)[C@H](CC(C)C)NC(=O)[C@H](Cc4ccco4)NC(=O)[C@H](C(C)C)NC(=O)[C@@H]4CCCN4C(=O)[C@H](C(C)C)NC(=O)[C@@H](CCCNC(=N)N)NC(=O)[C@H](CC(=O)O)NC(=O)[C@@H]4CCCN4C(=O)CN(C)C3=O)cc2)cc1 [Example 246] ({CH2CO}-[Cha][Bip(4'-COOH)][Bip(4'-NHAc)][Sar]PD[dR]VPV[Ala(2-furyl)]LCG-NH2; thioether N-13) | 50 to 200 nM
11 | CC[C@H](C)[C@@H]1NC(=O)[C@@H](CCCNC(=N)N)NC(=O)[C@H](CC(=O)O)NC(=O)[C@H](Cc2cnc[nH]2)NC(=O)CN(C)C(=O)[C@H](Cc2ccc(-c3ccc(NC(=O)[C@H](Cc4cn(CC(=O)O)c5ccccc45)NC(=O)c4cccc(C(=O)O)c4)cc3)cc2)NC(=O)[C@H](Cc2ccc(-c3ccccc3)cc2)NC(=O)[C@H](CC2CCCCC2)NC(=O)CSC[C@@H](C(=O)NCC(N)=O)NC(=O)[C@H](CC(C)C)NC(=O)[C@H](Cc2ncc[nH]2)NC(=O)[C@H](C(C)C)NC(=O)[C@@H]2CCCN2C1=O [Example 415] ({CH2CO}-[Cha][Bip][Bip(4'-NH)](X71)[Sar]HD[dR]IPV[Ala(imidazol-2-yl)]LCG-NH2; thioether N-13) | 50 to 200 nM
12 | CC(C)C[C@@H]1NC(=O)[C@H](CCCNC(=N)N)NC(=O)[C@H](C(C)C)NC(=O)[C@@H]2CCCN2C(=O)[C@H](C(C)C)NC(=O)[C@@H](CCCNC(=N)NCc2cccc(NC(=N)N)c2)NC(=O)[C@H](CC(=O)O)NC(=O)[C@@H]2CCCN2C(=O)CN(C)C(=O)[C@H](Cc2ccc(-c3ccc(NC(=O)c4nn(C)c5ccccc45)cc3)cc2)NC(=O)[C@H](Cc2ccc(-c3ccccc3)cc2)NC(=O)[C@H](CN2CCOCC2)NC(=O)CSC[C@@H](C(=O)NCC(N)=O)NC1=O [Example 438] ({CH2CO}-[Ala(morpholin-4-yl)][Bip][X5][Sar]PD[X25]VPVRLCG-NH2; thioether N-13) | 50 to 200 nM
13 | CC(=O)Nc1ccc(-c2ccc(C[C@@H]3NC(=O)[C@H](Cc4ccc(-c5ccccc5)cc4)NC(=O)[C@H](CN4CCOCC4)NC(=O)CSC[C@@H](C(=O)NCC(N)=O)NC(=O)[C@H](CC(C)C)NC(=O)[C@H](CCCNC(=N)N)NC(=O)[C@H](C(C)C)NC(=O)[C@@H]4CCCN4C(=O)[C@H](C(C)C)NC(=O)[C@H](CCCNC(=N)N)NC(=O)[C@H](CC(=O)O)NC(=O)[C@H](Cc4ccc(O)cc4)NC(=O)CNC3=O)cc2)cc1 [Example 192] ({CH2CO}-[Ala(morpholin-4-yl)][Bip][Bip(4'-NHAc)]GYDRVPVRLCG-NH2; thioether N-13) | 50 to 200 nM
14 | CC[C@H](C)[C@@H]1NC(=O)[C@@H]2CCCN2C(=O)[C@H]([C@@H](C)CC)NC(=O)[C@@H](CCCNC(=N)N)NC(=O)[C@H](CC(=O)O)NC(=O)[C@H](Cc2ccccn2)NC(=O)CN(C)C(=O)[C@H](Cc2ccc(-c3ccc(NC(=O)c4nn(C)c5ccccc45)cc3)cc2)NC(=O)[C@H](Cc2ccc(-c3ccccc3)cc2)NC(=O)[C@H](C(C)(C)C)NC(=O)CSC[C@@H](C(=O)NCC(N)=O)NC(=O)[C@H](CC(C)C)NC(=O)[C@H](Cc2cccc(C(N)=O)c2)NC1=O [Example 335] ({CH2CO}-[Tle][Bip][X5][Sar][2Pal]D[dR]IPI[Phe(3-CONH2)]LCG-NH2; thioether N-13) | 50 to 200 nM
15 | CC(C)C[C@@H]1NC(=O)[C@H](CCCNC(=N)N)NC(=O)[C@H](C(C)C)NC(=O)CNC(=O)[C@H](C(C)C)NC(=O)[C@H](CCCNC(=N)N)NC(=O)[C@H](CC(=O)O)NC(=O)[C@H](Cc2ccc(O)cc2)NC(=O)CN(C)C(=O)[C@H](Cc2ccc(-c3ccccc3)cc2)NC(=O)[C@H](Cc2ccc(-c3ccccc3)cc2)NC(=O)[C@H](CN2CCOCC2)NC(=O)CSC[C@@H](C(=O)NCC(N)=O)NC1=O [Example 138] ({CH2CO}-[Ala(morpholin-4-yl)][Bip][Bip][Sar]YDRVGVRLCG-NH2; thioether N-13) | 200 to 2000 nM

Reference: patent US20250145665A1, “MACROCYCLIC PEPTIDES USEFUL AS MODULATORS OF TNF ALPHA” (Bristol-Myers Squibb Company, priority 2023, published 2025)
